Experimental data: ChEMBL document CHEMBL1201862, “PubChem BioAssay data set” (2004)
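Dose response: 5 concentrations. Exposure: 48 h. Format: 96-well plates. Endpoint: linear interpolation; highest concentration if not reached. GI50 marks 50% less growth.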 Calls of active or inactive are those of the source. Cut-off read from the data, not from the text of the source: active = GI50 up to about 1.1 µM and inactive = higher.

Columns and labels:
Experiment in all cases: DTP human tumour cell line panel, 48 h
[1] = system: TK-10
[2] = system: CAKI-1
[3] = system: HL-60
[4] = system: SK-MEL-2
[5] = system: NCI/ADR-RES
[6] = system: IGROV-1
[7] = system: MCF7
[8] = system: BT-549
[9] = system: OVCAR-8
[10] = system: DU-145
[11] = system: SR
[12] = system: ACHN
[13] = system: MDA-N
[14] = system: HCC 2998
[15] = system: MDA-MB-231
[16] = system: PC-3
[17] = system: K562
[18] = system: SK-OV-3
[19] = system: NCI-H460

Row | SMILES | GI50 [1] | GI50 [2] | GI50 [3] | GI50 [4] | GI50 [5] | GI50 [6] | GI50 [7] | GI50 [8] | GI50 [9] | GI50 [10] | GI50 [11] | GI50 [12] | GI50 [13] | GI50 [14] | GI50 [15] | GI50 [16] | GI50 [17] | GI50 [18] | GI50 [19]
1 | CN1CCN(CC(=O)Nc2cccc3ccccc23)CC1 | > 100 µM (inactive) | > 100 µM (inactive) | > 100 µM (inactive) | > 100 µM (inactive) | > 100 µM (inactive) | > 100 µM (inactive) | > 100 µM (inactive) | > 100 µM (inactive) | > 100 µM (inactive) | > 100 µM (inactive) | > 100 µM (inactive) | > 100 µM (inactive) | > 100 µM (inactive) | > 100 µM (inactive) | > 100 µM (inactive) | > 100 µM (inactive) | > 100 µM (inactive) | > 100 µM (inactive) | > 100 µM (inactive)
2 | COc1cc2cc3c4c(cc(OC)c(OC)c4c2cc1OC)CCN3C | 4.42 µM (inactive) | 4.86 µM (inactive) | 5.3 µM (inactive) | 10.3 µM (inactive) | 4.2 µM (inactive) | 4.21 µM (inactive) | 2.63 µM (inactive) | 6.46 µM (inactive) | 12.7 µM (inactive) | 4.97 µM (inactive) | 1.25 µM (inactive) | 3.66 µM (inactive) | 13.1 µM (inactive) | 7.41 µM (inactive) | 7.73 µM (inactive) | 3.52 µM (inactive) | 6.19 µM (inactive) | 9.18 µM (inactive) | 2.65 µM (inactive)
3 | N#Cc1c(Nc2ccccc2)[n+]([O-])c2ccc(Cl)cc2[n+]1[O-] | 4.06 µM (inactive) | 5.09 µM (inactive) | 2.01 µM (inactive) | 18 µM (inactive) | 2.7 µM (inactive) | 1.78 µM (inactive) | 3.64 µM (inactive) | 3.44 µM (inactive) | 2.77 µM (inactive) | 16.1 µM (inactive) | 3.16 µM (inactive) | 2.85 µM (inactive) | 11 µM (inactive) | 4.06 µM (inactive) | 9.53 µM (inactive) | 3.36 µM (inactive) | 3.03 µM (inactive) | 21.2 µM (inactive) | 2.42 µM (inactive)
4 | C=C1CCc2ccccc2C1=O | > 100 µM (inactive) | > 100 µM (inactive) | > 100 µM (inactive) | > 100 µM (inactive) | > 100 µM (inactive) | > 100 µM (inactive) | 56 µM (inactive) | > 100 µM (inactive) | > 100 µM (inactive) | > 100 µM (inactive) | 19.2 µM (inactive) | > 100 µM (inactive) | 43.1 µM (inactive) | > 100 µM (inactive) | > 100 µM (inactive) | > 100 µM (inactive) | 37.9 µM (inactive) | > 100 µM (inactive) | > 100 µM (inactive)
5 | CC(=O)OC1(C)C(=O)OC/C2=C/CN(C)CCC(OC(=O)C(O)(C(C)Cl)CC1C)C2=O.c1ccccc1 (stereo not given) | > 100 µM (inactive) | > 100 µM (inactive) | > 100 µM (inactive) | > 100 µM (inactive) | > 100 µM (inactive) | > 100 µM (inactive) | > 100 µM (inactive) | > 100 µM (inactive) | > 100 µM (inactive) | > 100 µM (inactive) | > 100 µM (inactive) | > 100 µM (inactive) | > 100 µM (inactive) | > 100 µM (inactive) | > 100 µM (inactive) | > 100 µM (inactive) | > 100 µM (inactive) | > 100 µM (inactive) | > 100 µM (inactive)
6 | CC1=NN(c2nc(N)nc(C(C#N)C(=O)c3cc4c(cc3Cl)Sc3nccn3S4(=O)=O)n2)C(C)(C)C1 (stereo not given) | 17.9 µM (inactive) | 13.5 µM (inactive) | 10.3 µM (inactive) | 20.2 µM (inactive) | > 100 µM (inactive) | 20.8 µM (inactive) | 14.3 µM (inactive) | 13.6 µM (inactive) | 20.7 µM (inactive) | 16.8 µM (inactive) | 4.4 µM (inactive) | 13.4 µM (inactive) | 21.9 µM (inactive) | 8.41 µM (inactive) | 15.6 µM (inactive) | 29.2 µM (inactive) | 34.9 µM (inactive) | 18.5 µM (inactive) | 8.83 µM (inactive)
7 | CC1(C)C=C(/C=C2/N(S(=O)(=O)C(F)(F)F)C(/C=C3/N(S(=O)(=O)C(F)(F)F)C(C)(C#N)CC3(C)C)=CC2(C)C)N=C1/C=C1/CC(C)(C)C(=O)N1 (stereo not given) | 71.9 µM (inactive) | 11.4 µM (inactive) | 1.41 µM (inactive) | 29.5 µM (inactive) | 23.3 µM (inactive) | 7.24 µM (inactive) | 9.29 µM (inactive) | 27.2 µM (inactive) | 4.57 µM (inactive) | 33.9 µM (inactive) | 2.8 µM (inactive) | 23.7 µM (inactive) | 21.4 µM (inactive) | 35.2 µM (inactive) | 23.1 µM (inactive) | 5.71 µM (inactive) | 3.11 µM (inactive) | 45.7 µM (inactive) | 20.8 µM (inactive)
8 | COc1cc2oc(=O)cc(C)c2cc1[N+](=O)[O-] | 35.7 µM (inactive) | 13.8 µM (inactive) | 8.87 µM (inactive) | 12.4 µM (inactive) | 28.4 µM (inactive) | 38.9 µM (inactive) | 25.5 µM (inactive) | 16.7 µM (inactive) | 18.8 µM (inactive) | 33.1 µM (inactive) | 13 µM (inactive) | 28.1 µM (inactive) | 14.7 µM (inactive) | 14.6 µM (inactive) | 22.4 µM (inactive) | 27.9 µM (inactive) | 22.4 µM (inactive) | 84.1 µM (inactive) | 46.3 µM (inactive)
9 | COc1ccc(OC)c(C2CCc3c(cnc4nc(N)nc(N)c34)C2)c1 (stereo not given) | 10.9 µM (inactive) | 14 µM (inactive) | 10.4 µM (inactive) | 15.2 µM (inactive) | 55.3 µM (inactive) | 2.29 µM (inactive) | 10.1 µM (inactive) | 14.3 µM (inactive) | 5.36 µM (inactive) | 13.9 µM (inactive) | 3.86 µM (inactive) | 3.91 µM (inactive) | 2.07 µM (inactive) | 12.3 µM (inactive) | 12.2 µM (inactive) | 8.2 µM (inactive) | 0.573 µM (active) | 16 µM (inactive) | 2.07 µM (inactive)
10 | CN(C)CCCC1c2ccccc2Oc2ccc(C(F)(F)F)cc21 (stereo not given) | 15.6 µM (inactive) | 12.9 µM (inactive) | 12.1 µM (inactive) | 14.6 µM (inactive) | 13.7 µM (inactive) | 14 µM (inactive) | 12.7 µM (inactive) | 14.2 µM (inactive) | 16.8 µM (inactive) | 17.2 µM (inactive) | 7.28 µM (inactive) | 16.7 µM (inactive) | 4.02 µM (inactive) | 1.63 µM (inactive) | 12.8 µM (inactive) | 13.7 µM (inactive) | 5.9 µM (inactive) | 16.8 µM (inactive) | 15 µM (inactive)
11 | Cc1cc(S(=O)(=O)Nc2nc3ccccc3nc2-c2ccc(Cl)cc2)c(S)cc1Cl | 28.6 µM (inactive) | 18.7 µM (inactive) | 21.6 µM (inactive) | 13.7 µM (inactive) | 19.4 µM (inactive) | 12.4 µM (inactive) | 17 µM (inactive) | 23.8 µM (inactive) | 23.2 µM (inactive) | 16.3 µM (inactive) | 17.3 µM (inactive) | 16.7 µM (inactive) | 18 µM (inactive) | 15.7 µM (inactive) | 24.5 µM (inactive) | 17.1 µM (inactive) | 19.9 µM (inactive) | 17.3 µM (inactive) | 13.6 µM (inactive)
12 | CCN(CC)CCC(=O)Nc1ccc2sc3ccccc3c(=O)c2n1 | 18 µM (inactive) | 14 µM (inactive) | 7.98 µM (inactive) | 19.8 µM (inactive) | 19.8 µM (inactive) | 16.5 µM (inactive) | 13.3 µM (inactive) | 15.6 µM (inactive) | 17.5 µM (inactive) | 23.4 µM (inactive) | 15.9 µM (inactive) | 16.3 µM (inactive) | 14.1 µM (inactive) | 19.7 µM (inactive) | > 10 µM (inactive) | 15.4 µM (inactive) | 11 µM (inactive) | 20.6 µM (inactive) | 23.1 µM (inactive)
13 | CC(C)C[C@H](NC(=O)[C@H](Cc1ccccc1)NC(=O)CCc1ccccc1)B(O)O | < 0.01 µM (active) | < 0.01 µM (active) | < 0.01 µM (active) | < 0.01 µM (active) | 0.011 µM (active) | < 0.01 µM (active) | < 0.01 µM (active) | < 0.01 µM (active) | < 0.01 µM (active) | < 0.01 µM (active) | < 0.01 µM (active) | < 0.01 µM (active) | < 0.01 µM (active) | < 0.01 µM (active) | < 0.01 µM (active) | < 0.01 µM (active) | < 0.01 µM (active) | < 0.01 µM (active) | < 0.01 µM (active)
14 | O=[N+]([O-])c1nccn1CC(O)CN1CCCCC1 (stereo not given) [PIMONIDAZOLE] | > 100 µM (inactive) | > 100 µM (inactive) | > 100 µM (inactive) | > 100 µM (inactive) | > 100 µM (inactive) | > 100 µM (inactive) | > 100 µM (inactive) | > 100 µM (inactive) | > 100 µM (inactive) | > 100 µM (inactive) | > 100 µM (inactive) | > 100 µM (inactive) | > 100 µM (inactive) | > 100 µM (inactive) | > 100 µM (inactive) | > 100 µM (inactive) | > 100 µM (inactive) | > 100 µM (inactive) | > 100 µM (inactive)
15 | CC1=CC(=O)c2c(O)cccc2C1=O [PLUMBAGIN] | 1.71 µM (inactive) | 1.83 µM (inactive) | 0.152 µM (active) | 1.85 µM (inactive) | 1.76 µM (inactive) | 1.78 µM (inactive) | 1.79 µM (inactive) | 1.7 µM (inactive) | 1.69 µM (inactive) | 1.65 µM (inactive) | 1.69 µM (inactive) | 1.6 µM (inactive) | 1.72 µM (inactive) | 2.07 µM (inactive) | 1.92 µM (inactive) | 2.21 µM (inactive) | 0.391 µM (active) | 14.1 µM (inactive) | 3.64 µM (inactive)
